Experiments:
Assay in all cases: relative viability (nuclei count vs DMSO), 5 days (fraction); higher = more cells survive
[1] = compound: COc1cc2nccc(Oc3ccc(NC(=O)C4(C(=O)Nc5ccc(F)cc5)CC4)cc3)c2cc1OC [Cabozantinib] + Nc1ncn([C@H]2C[C@H](O)[C@@H](CO)O2)c(=O)n1 [Decitabine] (partner 2 µM)
Method in brief: (§1)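 Dosing by pin tool came one day after lung cancer cell lines were seeded in 1536-well plates, using either one drug or a fixed anchor-drug dose plus five library-drug doses (not always all listed) in √10 steps. After 5 days, nuclei were counted on 4× images. Relative viability is treated-well nuclei count divided by vehicle-well nuclei count, and values are medians of duplicate plates.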

[2] = compound: C1=CC(=CC=C1NC(=S)NNC2=C(C=C(C=C2[N+](=O)[O-])C(F)(F)F)[N+](=O)[O-])F [Kobe2602] + Cc1nc(NC(=O)N2CCC[C@H]2C(N)=O)sc1-c1ccnc(C(C)(C)C(F)(F)F)c1 [Alpelisib] (partner 2 µM)
Method in brief: as §1

[3] = compound: O[C@@H](COc1cccc2ncccc12)CN1CCN([C@@H]2c3ccccc3[C@@H]3[C@H](c4ccccc42)C3(F)F)CC1 [Zosuquidar] + CS(=O)(=O)N1CCN(Cc2cc3nc(-c4cccc5[nH]ncc45)nc(N4CCOCC4)c3s2)CC1 [Pictilisib] (partner 1 µM)
Method in brief: as §1

[4] = compound: O[C@@H](COc1cccc2ncccc12)CN1CCN([C@@H]2c3ccccc3[C@@H]3[C@H](c4ccccc42)C3(F)F)CC1 [Zosuquidar] + N=C(N)NC(=N)NCCc1ccccc1 [Phenformin] (partner 250 µM)
Method in brief: as §1

Row | Cell Line | relative viability ([1]; first compound 0.02 µM) | relative viability ([1]; first compound 0.06325 µM) | relative viability ([1]; first compound 0.2 µM) | relative viability ([1]; first compound 0.6325 µM) | relative viability ([1]; first compound 2 µM) | relative viability ([2]; first compound 0.2 µM) | relative viability ([2]; first compound 0.6325 µM) | relative viability ([2]; first compound 2 µM) | relative viability ([2]; first compound 6.325 µM) | relative viability ([2]; first compound 20 µM) | relative viability ([3]; first compound 0.01 µM) | relative viability ([3]; first compound 0.03162 µM) | relative viability ([3]; first compound 0.1 µM) | relative viability ([3]; first compound 0.3162 µM) | relative viability ([3]; first compound 1 µM) | relative viability ([4]; first compound 0.01 µM) | relative viability ([4]; first compound 0.03162 µM) | relative viability ([4]; first compound 0.1 µM) | relative viability ([4]; first compound 0.3162 µM) | relative viability ([4]; first compound 1 µM)
1 | NCI-H1915 | 0.262 | 0.264 | 0.253 | 0.248 | 0.256 | 1.1 | 1.09 | 1.02 | 1.06 | 1.05 | 0.9 | 0.919 | 0.903 | 1.02 | 0.967 | 0.377 | 0.386 | 0.347 | 0.38 | 0.37
2 | NCI-H661 | 0.6 | 0.608 | 0.563 | 0.632 | 0.69 | 0.565 | 0.644 | 0.738 | 0.661 | 0.955 | 0.351 | 0.419 |  | 0.404 | 0.361 | 0.267 | 0.254 | 0.275 | 0.275 | 0.27
3 | NCI-H2126 | 0.531 | 0.546 | 0.618 | 0.643 | 0.59 | 0.688 | 0.817 | 0.726 | 0.735 | 0.806 | 0.479 | 0.505 | 0.404 | 0.494 | 0.539 | 0.544 | 0.542 |  | 0.539 | 0.532
4 | PC-14 | 0.237 | 0.203 |  | 0.219 | 0.249 | 0.822 | 0.948 | 0.863 | 0.962 | 0.989 | 0.573 | 0.831 | 0.801 | 0.696 | 0.816 | 0.502 | 0.533 | 0.447 | 0.645 | 0.47
5 | EMC-BAC-2 | 0.998 | 0.963 | 1.04 | 0.994 | 1.13 | 0.745 | 0.827 | 0.733 | 0.817 | 0.738 | 0.511 | 0.524 | 0.47 | 0.635 | 0.508 | 0.523 | 0.541 | 0.517 | 0.602 | 0.537
6 | NCI-H1437 | 0.64 | 0.567 | 0.58 | 0.576 | 0.558 | 0.938 | 1.01 | 0.914 | 0.956 | 0.938 | 0.464 | 0.411 | 0.453 | 0.628 | 0.506 | 0.31 | 0.327 | 0.287 | 0.313 | 0.328
7 | NCI-H2405 | 0.725 | 0.788 | 0.77 | 0.752 | 0.764 | 0.748 | 0.94 | 0.721 | 0.896 | 0.831 | 0.512 | 0.351 | 0.467 | 0.529 | 0.363 | 0.406 | 0.348 | 0.344 | 0.46 | 0.388
8 | NCI-H1666 | 0.649 | 0.754 | 0.712 | 0.711 | 0.752 | 0.97 | 0.925 |  | 0.893 | 0.768 | 0.458 | 0.491 | 0.52 | 0.517 | 0.274 | 0.542 | 0.577 | 0.571 | 0.584 | 0.521
